# Data from patent US20050154036A1, “Methods of using zonisamide as an adjunctive therapy for partial seizures” (Eisai Co., Ltd., priority 2004, published 2005).
# Columns and labels:
# [1] = cited from earlier work; for hyperammonemia as adverse effect: literature
# [2] = system: T-type Ca2+ currents; conditions: in vitro; cited from earlier work
# [3] = system: carbonic anhydrase; conditions: fraction of the inhibition by acetazolamide; cited from earlier work
# [4] = system: sodium channels; conditions: in vitro; cited from earlier work
# [5] = system: GABA/benzodiazepine receptor ionophore complex; conditions: in vitro; cited from earlier work
# [6] = cited from earlier work
# [7] = system: cultured mouse spinal cord neurons; conditions: 10-30 μg/mL; cited from earlier work
# [8] = human, in vivo
# From the text: The pharmacovigilance data that were collected, reviewed and analyzed provided the following information in respect of the incidence of hyperammonemia. A total of 4 cases fulfilled the criteria of potential hyperammonemia cases. These cases were reviewed in detail for evaluation of possible safety signals. Two US cases were reported as either high ammonia levels or increased ammonia. Two Japanese cases were reported as hyperammonemia.
# Of these, two (2) cases (both ZON1000262 and ZON1000346) had strong confounding factors and seem to be unrelated to zonisamide, but the possibility of zonisamide involvement cannot be completely excluded. The two cases of hyperammonemia originated from Japan and both involved adult patients. Both cases were serious and described as life-threatening. […]
# Estimates of exposure, based upon retail and mail order prescriptions, indicate that the number of unique patients taking zonisamide capsules in the U.S. is about 37,276 (total prescriptions per year/average number of prescriptions per patient per year less a calculated percentage decrease based on estimated annual dropouts) in the time between approval in 2000 and December 2002. […] Similarly, the incidences of NMS estimated herein are unlikely to be higher than calculated. Based on the exposure data and number of hyperammonemia cases, the incidence of hyperammonemia is calculated to be about […].
# [9] = system: rat hippocampal slices; conditions: 10-30 μg/mL; cited from earlier work
# [10] = system: dopaminergic and serotonergic neurotransmission; conditions: in vivo microdialysis; cited from earlier work
smiles,measurement,setting,value
NC(=O)N1c2ccccc2C=Cc2ccccc21 [carbamazepine],hyperammonemia as adverse effect,[1],known to cause hyperammonemia
CCCC(CCC)C(=O)O [valproate],hyperammonemia as adverse effect,[1],known to cause hyperammonemia
same,cases of hyperammonemia associated with the drug,"[1]; since 1979, O'Neil et al. 2002",more than 30 cases
"NS(=O)(=O)Cc1noc2ccccc12 [zonisamide, 1,2-benzisoxazole-3-methanesulfonamide]","effect on voltage-dependent, transient inward currents (T-type Ca2+ currents)",[2],reduces
same,carbonic anhydrase inhibition compared to acetazolamide,[3],1/50
same,effect on sodium channels,[4],blocks sodium channels
same,binding to the GABA/benzodiazepine receptor ionophore complex,[5],binds to the GABA/benzodiazepine receptor ionophore complex in an allosteric fashion
same,changes in chloride flux,[5],does not produce changes in chloride flux
same,hepatic enzyme induction,[6]; in vivo,not known to be a hepatic enzyme inducer
same,time required to achieve steady-state levels,[6]; upon reaching a stable dose or following dosage adjustment,up to two weeks
same,postsynaptic GABA or glutamate responses,[7],without affecting
same,synaptically-driven electrical activity,[7],suppresses
same,cases fulfilling the criteria of potential hyperammonemia cases,[8],4 cases
same,incidence of hyperammonemia,[8],"about 1:1,222,453"
same,neuronal or glial uptake of [3H]-GABA,[9],without affecting
same,dopaminergic and serotonergic neurotransmission,[10],facilitates
